Earlier results, collected in patent publication US5196203A, “Theophylline dosage form” (priority 1989, dated 1993).

Cn1c(=O)c2[nH]cnc2n(C)c1=O [Theophylline, 1,3-dimethylxanthine]
Effect at plasma concentrations above 20 mg/L: often associated with theophylline toxicity
